Data reported in US10076519B2 (CYTOKINETICS, INC., priority 2010, dated 2018).

system: rabbit skeletal myofibrils (fast skeletal myofibrils); assay: Activation of fast skeletal myofibrils (PUMA assay, PK/LDH-coupled ATPase at pCa25); type: biochemical; settings: AC1.4 determined according to the procedure of Example 39; reported as class symbols
How it was run: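 Detergent-washed rabbit psoas myofibrils (~90% fast fibres, calcium-regulated) assayed at calcium giving 25% of maximal ATPase rate (pCa25). ADP turnover coupled via pyruvate kinase/lactate dehydrogenase to NADH oxidation, read at 340 nm. Buffer 12 mM PIPES, 2 mM MgCl2, 1 mM DTT, pH 6.8; AC1.4 values derived.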

| SMILES | Mean AC1.4 |
| --- | --- |
| CC(C)(CNc1ccc(-c2ccc(C(=O)c3ccccc3)cc2)nn1)c1ccc(F)cc1 [4-(6-{[2-(4-fluorophenyl)-2-methylpropyl]amino}pyridazin-3-yl)phenyl phenyl ketone] | D (D=>20 uM) |
| CC(C)(CNc1ccc(C(=O)N2CCNC(=O)C2)nn1)c1ccc(F)cc1 [4-[(6-{[2-(4-fluorophenyl)-2-methylpropyl]amino}pyridazin-3-yl)carbonyl]piperazin-2-one] | D (D=>20 uM) |
| CC(C)(CNc1ccc(C(=O)N2CCNC(C(N)=O)C2)nn1)c1ccc(F)cc1 (stereo not shown) [4-[(6-{[2-(4-fluorophenyl)-2-methylpropyl]amino}pyridazin-3-yl)carbonyl]piperazine-2-carboxamide] | D (D=>20 uM) |
| CC(C)(CNc1ccc(-c2cncc(C#N)c2)nn1)c1ccccc1Cl [5-(6-{[2-(2-chlorophenyl)-2-methylpropyl]amino}pyridazin-3-yl)pyridine-3-carbonitrile] | B (B=1-10 uM) |
| CC(C)(CNc1ccc(-c2cncc(C(N)=O)c2)nn1)c1ccccc1Cl [5-(6-{[2-(2-chlorophenyl)-2-methylpropyl]amino}pyridazin-3-yl)pyridine-3-carboxamide] | B (B=1-10 uM) |
| CC(C)(CNc1ccc(-c2ccc3[nH]c(O)nc3c2)nn1)c1ncccc1F [5-(6-{[2-(3-fluoro(2-pyridyl))-2-methylpropyl]amino}pyridazin-3-yl)benzimidazol-2-ol] | A (A=<1 uM) |
| CC(C)(CNc1ccc(-c2n[nH]c(=O)o2)nn1)c1ccc(F)cc1 [5-(6-{[2-(4-fluorophenyl)-2-methylpropyl]amino}pyridazin-3-yl)-1,3,4-oxadiazolin-2-one] | C (C=10-20 uM) |
| CC(C)(CNc1ccc(-c2ccc3[nH]nc(C#N)c3c2)nn1)c1ccc(F)cc1 [5-(6-{[2-(4-fluorophenyl)-2-methylpropyl]amino}pyridazin-3-yl)-1H-indazole-3-carbonitrile] | D (D=>20 uM) |
| CC(C)(CNc1ccc(-c2ccc3[nH]nc(C(N)=O)c3c2)nn1)c1ccc(F)cc1 [5-(6-{[2-(4-fluorophenyl)-2-methylpropyl]amino}pyridazin-3-yl)-1H-indazole-3-carboxamide] | A (A=<1 uM) |
| CC(C)(CNc1ccc(-c2ccc3[nH]nc(C(=N)N)c3c2)nn1)c1ccc(F)cc1 [5-(6-{[2-(4-fluorophenyl)-2-methylpropyl]amino}pyridazin-3-yl)-1H-indazole-3-carboxamidine] | B (B=1-10 uM) |

same assay, conditions: median AC1.4 class, procedure of Example 39

| SMILES | Mean AC1.4 |
| --- | --- |
| O=C(c1cnc(-c2ccc(NCC3(c4ncccc4F)CCC3)nn2)s1)N1CCS(=O)(=O)CC1 [4-({2-[6-({[(3-fluoro-2-pyridyl)cyclobutyl]methyl}ami-no)pyridazin-3-yl]-1,3-thiazol-5-yl}carbonyl)-1,4-thiazaperhydroine-1,1-dione] | B (B=1-10 uM) |
| O=C1CN(C(=O)c2cnc(-c3ccc(NCC4(c5ncccc5F)CCC4)nn3)s2)CCN1 [4-({2-[6-({[(3-fluoro-2-pyridyl)cyclobutyl]methyl}ami-no)pyridazin-3-yl]-1,3-thiazol-5-yl}carbonyl)piperazin-2-one] | C (C=10-20 uM) |
| NC(=O)C1CN(C(=O)c2cnc(-c3ccc(NCC4(c5ncccc5F)CCC4)nn3)s2)CCN1 (stereo not shown) [4-({2-[6-({[(3-fluoro-2-pyridyl)cyclobutyl]methyl}ami-no)pyridazin-3-yl]-1,3-thiazol-5-yl}carbonyl)piperazine-2-carboxamide] | B (B=1-10 uM) |
| NC(=O)c1nc(-c2ccc(NCC3(c4ncccc4F)CCC3)nn2)cs1 [4-[6-({[(3-fluoro-2-pyridyl)cyclobutyl]methyl}ami-no)pyridazin-3-yl]-1,3-thiazole-2-carboxamide] | B (B=1-10 uM) |
| NC(=O)c1nccc(-c2ccc(NCC3(c4ncccc4F)CCC3)nn2)n1 [4-[6-({[(3-fluoro-2-pyridyl)cyclobutyl]methyl}ami-no)pyridazin-3-yl]pyrimidine-2-carboxamide] | D (D=>20 uM) |
| CC(C)(Nc1ccc(-c2cc(C(N)=O)ccc2F)nn1)c1ncccc1F [4-fluoro-3-(6-{[1-(3-fluoro(2-pyridyl))-isopropyl]amino}pyridazin-3-yl)benzamide] | B (B=1-10 uM) |
| CC(C)(Nc1ccc(-c2cc(C(N)=O)ccc2F)nn1)c1ccc(F)cc1 [4-fluoro-3-(6-{[1-(4-fluorophenyl)-isopropyl]amino}pyridazin-3-yl)benzamide] | A (A=<1 uM) |
| N#Cc1ccc(F)c(-c2ccc(NC[C@]3(c4ncccc4F)C[C@H](F)C3)nn2)c1 [4-fluoro-3-[6-({[3-fluoro-1-(3-fluoro(2-pyridyl))cyclobutyl]methyl}ami-no)pyridazin-3-yl]benzenecarbonitrile] | B (B=1-10 uM) |
| O=C(O)c1ccc(F)c(-c2ccc(NC[C@]3(c4ncccc4F)C[C@H](F)C3)nn2)c1 [4-fluoro-3-[6-({[3-fluoro-1-(3-fluoro(2-pyridyl))cyclobutyl]methyl}ami-no)pyridazin-3-yl]benzoic acid] | A (A=<1 uM) |
| CC(C)(Nc1ccc(-c2ccc(C(N)=O)cc2)nn1)c1ccccc1 [4-{6-[(1-methyl-1-phenylethyl)amino]pyridazin-3-yl}benzamide] | C (C=10-20 uM) |

same assay, conditions: median AC1.4 reported as class; procedure of Example 39

| SMILES | Mean AC1.4 |
| --- | --- |
| O=S1(=O)CCN(Cc2cnc(-c3ccc(NCC4(c5ncccc5F)CCC4)nn3)s2)CC1 [4-({2-[6-({[(3-fluoro-2-pyridyl)cyclobutyl]methyl}ami-no)pyridazin-3-yl]-1,3-thiazol-5-yl}methyl)-1,4-thiazaperhydroine-1,1-dione] | D (D=>20 uM) |
| O=C1NCc2c1cccc2-c1ccc(NC[C@]2(c3ncccc3F)C[C@H](F)C2)nn1 [4-[6-({[3-fluoro-1-(3-fluoro(2-pyridyl))cyclobutyl]methyl}ami-no)pyridazin-3-yl]isoindolin-1-one] | B (B=1-10 uM) |
| NC(=O)c1ccc(F)c(-c2ccc(NC[C@]3(c4ncccc4F)C[C@H](F)C3)nn2)c1O [4-fluoro-3-[6-({[3-fluoro-1-(3-fluoro(2-pyridyl))cyclobutyl]methyl}ami-no)pyridazin-3-yl]-2-hydroxybenzamide] | A (A=<1 uM) |
| Cc1cc(NCC2(c3ncccc3F)CCC2)nnc1-c1cc(C(N)=O)ccc1F [4-fluoro-3-[6-({[(3-fluoro(2-pyridyl))cyclobutyl]methyl}ami-no)-4-methylpyridazin-3-yl]benzamide] | C (C=10-20 uM) |
| NC(=O)c1ccc(F)c(-c2ccc(NCC3(c4ncccc4F)CCC3)nn2)c1O [4-fluoro-3-[6-({[(3-fluoro(2-pyridyl))cyclobutyl]methyl}ami-no)pyridazin-3-yl]-2-hydroxybenzamide] | A (A=<1 uM) |
| NC(=O)c1cc(-c2ccc(NC[C@]3(c4ncccc4F)C[C@H](F)C3)nn2)c(F)cc1O [4-fluoro-5-[6-({[3-fluoro-1-(3-fluoro(2-pyridyl))cyclobutyl]methyl}ami-no)pyridazin-3-yl]-2-hydroxybenzamide] | A (A=<1 uM) |
| NC(=O)c1cc(-c2ccc(NCC3(c4ncccc4F)CCC3)nn2)c(F)cc1O [4-fluoro-5-[6-({[(3-fluoro(2-pyridyl))cyclobutyl]methyl}ami-no)pyridazin-3-yl]-2-hydroxybenzamide] | A (A=<1 uM) |
| Cn1cc(NC(=O)c2ccc(NCC3(c4ncccc4F)CCC3)nn2)nc1C(N)=O [4-{[6-({[(3-fluoro(2-pyridyl))cyclobutyl]methyl}ami-no)pyridazin-3-yl]carbonylamino}-1-methylimidazole-2-carboxamide] | D (D=>20 uM) |
